Laboratory results published in patent publication US20230192799A1, “CNP Variants and Conjugates Thereof” (BIOMARIN PHARMACEUTICAL INC., priority 2019, published 2023).
Numbered stars: 1 amine (or outer) side, 2 acyl side, 3 side chain; on linkers, the order of the positions; unused ones are H or OH. Bridge positions count the residues as written; N and C are the ends. Side chains are listed from the residue outwards. Peptide text beside a SMILES is read from it. * marks the point of attachment. ξ: configuration not given here. C18 diacid = O=C(O)CCCCCCCCCCCCCCCCC(=O)*; ξγGlu = O=C(O)C(CCC(=O)[*:2])N[*:1]; AEEA = NCCOCCOCC(=O)O

Columns and labels:
[1] = system: NPR2+/− rat chondrosarcoma cell model (heterozygous NPR2 knockout cells); assay: cGMP stimulation assay in NPR2 mutant RCS cells; type: cell-based
Method: To determine the effects of CNP on subjects with short stature resulting from NPR2 mutations, cellular models of NPR2 mutations were developed. […] Rat chondrosarcoma (RCS) cells having either a knockout of, or heterozygous loss of function mutations in, the NPR2 gene were made by RNP transfection into RCS cells using 125 ng NPR2 variants or wild-type NPR2 plasmid DNA transfected into RCS or HEK293 cells. Single cell clones were seeded and genotyped by Sanger sequencing.
The NPR2 clones were created by creating insertions and deletions in the first exon of NPR2 in RCS cells. […] NPR2 mutant cells were tested for activity in response to CNP administration by a cGMP stimulation assay using a Catch Point Cyclic-GMP Fluorescent Assay after treatment with 6 nM of Pro-Gly CNP37. RCS (rat chondrosarcoma) cells were seeded at 40,000 cells/well in RCS culture media: DMEM+10% FBS+1× Pen Strep.

[2] = system: mice deficient in Nf1 in type II collagen producing cells; conditions: daily injections; cited from earlier work
[3] = system: mouse model of Cardiofaciocutaneous syndrome using a Braf mutation (p.Q241R); conditions: in vivo; cited from earlier work
[4] = Stability of CNP variants by RP-HPLC, 10 days in PBS; type: physicochemical; conditions: for T0, % (% variant detected at T0): T0 (0 days); for T10, % (% variant detected at T10): T10 (10 days) in PBS, pH 7.4, at 37° C.
[5] = system: cGMP production in NIH3T3 cells and HEK293 cells; assay: cGMP stimulation assay (CatchPoint Cyclic-GMP Fluorescent Assay); type: cell-based; conditions: peptide at T0, 7-point dose curve 100 nM to 0.0064 nM
[6] = Stability of CNP variants or conjugates in human plasma (LC-MS/MS); type: in vitro ADME
Method: Stability of different CNP variants or CNP conjugates were tested for stability in human plasma over a 24 hour period. Briefly, a C18 fatty acid was fused to gamma glutamic acid using 2 OEG spacers (see e.g., Lau et al., J. Med. Chem 58:7370-7380, 2015). For the chromatography, Waters UPLC H-Class connected with BEH C18 1.7 um, 2.1×150 mm; Mobile Phase A: 1% DMSO 0.1% Formic Acid in Water; Mobile Phase B: 1% DMSO 0.1% Formic Acid in CAN. Mass Spectrometry was carried out using an AB Sciex QTRAP.
each CNP variant was prepared at 200 nM in Human Plasma Li Heparin and samples Incubated at 37° C. 5% CO2. The reaction was quenched at 0, 1, 2, 4, 8, 24 hours with 0.5M Sodium Citrate pH 4. Plasma proteins were precipitated with 0.2% Formic Acid in MeOH and samples prepared using WCX 96-well uElution plate and analyzed by LC-MS/MS 6500.
Stability of different conjugates was also analyzed at varying conditions. Briefly, the same protocol as above was used at 37° C. (control), 37° C.+0.5M NaCl, 37° C.+protease inhibitors or 4° C.

Compound | T0, % (% variant detected at T0) [4] | T10, % (% variant detected at T10) [4] | also measured
C-type natriuretic peptide [CNP] | – | – | rescue of NPR2 signaling ([1]; cell model of NPR2 haploinsufficiency, exogenous CNP): dose-dependent rescue; ERK phosphorylation [2]: decreased ERK phosphorylation; short stature [2]: corrected the short stature; body length [3]: increases in body length
PGQEHPQARRYRGAQRRGLSRGCFGLKLDRIGSMSGLGC [CNP-8] | 91% | 88% | –
PGQEHPNARRYRGANRRGLSRGCFGLKLDRIGSMSGLGC [CNP-6] | 90% | 58% | –
PGQEHPNARRYRGANRRGLSRGCFGLKLDRIGSMSGLGC [CNP-7] | 77% | 53% | –
PGQEHPNARKYKGANKKGLSKGCFGLKLDRIGSMSGLGC [CNP-5] | 83% | 47% | –
PGQEHPQARRYRGAQRRGLSRGCFGLKLDRIGSMSGLGC [CNP-9] | 92% | 77% | –
CC[C@H](C)[C@@H]1NC(=O)[C@H](CCCNC(=N)N)NC(=O)[C@H](CC(=O)O)NC(=O)[C@H](CC(C)C)NC(=O)[C@H](CCCCN)NC(=O)[C@H](CC(C)C)NC(=O)CNC(=O)[C@H](Cc2ccccc2)NC(=O)[C@@H](NC(=O)CNC(=O)[C@H](CCCCN)NC(=O)[C@H](CO)NC(=O)[C@H](CC(C)C)NC(=O)CNC(=O)[C@H](CCCCN)NC(=O)[C@H](CCCCN)NC(=O)[C@H](CC(N)=O)NC(=O)[C@H](C)NC(=O)CNC(=O)[C@H](CCCCN)NC(=O)[C@H](Cc2ccc(O)cc2)NC(=O)[C@H](CCCCN)NC(=O)[C@H](CCCNC(=N)N)NC(=O)[C@H](C)NC(=O)[C@H](CC(N)=O)NC(=O)[C@@H]2CCCN2C(=O)[C@H](Cc2c[nH]cn2)NC(=O)[C@H](CCC(=O)O)NC(=O)[C@H](CCC(N)=O)NC(=O)CNC(=O)[C@@H]2CCCN2)CSSC[C@@H](C(=O)O)NC(=O)CNC(=O)[C@H](CC(C)C)NC(=O)CNC(=O)[C@H](CO)NC(=O)[C@H](CCSC)NC(=O)[C@H](CO)NC(=O)CNC1=O [Pro-Gly CNP37] | 76.7% | 39.5% | EC50 [5]: 1.7 nM; stability in human plasma at varying conditions ([6]; 37° C. (control), 37° C.+0.5M NaCl, 37° C.+protease inhibitors or 4° C. (FIG. 3)): greater stability compared to other variants; proteolysis in human plasma ([6]; human plasma, varying conditions (FIG. 3)): prone to proteolysis; cGMP readout ([1]; NPR2+/− rat chondrosarcoma cells, 6 nM of peptide (FIG. 4)): rescues cGMP readout
CC[C@H](C)[C@@H]1NC(=O)[C@H](CCCNC(=N)N)NC(=O)[C@H](CC(=O)O)NC(=O)[C@H](CC(C)C)NC(=O)[C@H](CCCCNC(=O)COCCOCCNC(=O)COCCOCCNC(=O)CCC(NC(=O)CCCCCCCCCCCCCCCCC(=O)O)C(=O)O)NC(=O)[C@H](CC(C)C)NC(=O)CNC(=O)[C@H](Cc2ccccc2)NC(=O)[C@@H](NC(=O)CNC(=O)[C@H](CCCNC(=N)N)NC(=O)[C@H](CO)NC(=O)[C@H](CC(C)C)NC(=O)CNC(=O)[C@H](CCCNC(=N)N)NC(=O)[C@H](CCCNC(=N)N)NC(=O)[C@H](CCC(N)=O)NC(=O)[C@H](C)NC(=O)CNC(=O)[C@H](CCCNC(=N)N)NC(=O)[C@H](Cc2ccc(O)cc2)NC(=O)[C@H](CCCNC(=N)N)NC(=O)[C@H](CCCNC(=N)N)NC(=O)[C@H](C)NC(=O)[C@H](CCC(N)=O)NC(=O)[C@@H]2CCCN2C(=O)[C@H](Cc2c[nH]cn2)NC(=O)[C@H](CCC(=O)O)NC(=O)[C@H](CCC(N)=O)NC(=O)CNC(=O)[C@@H]2CCCN2C(C)=O)CSSC[C@@H](C(=O)O)NC(=O)CNC(=O)[C@H](CC(C)C)NC(=O)CNC(=O)[C@H](CO)NC(=O)[C@H](CCSC)NC(=O)[C@H](CO)NC(=O)CNC1=O (stereo partly drawn) [lipidated conjugate] (Ac-PGQEHPQARRYRGAQRRGLSRGCFGLK([AEEA-AEEA-ξγGlu-C18 diacid])LDRIGSMSGLGC-OH; disulfide 23-39) | – | – | stability in plasma ([6]; human plasma, 200 nM, 37° C., over 24 hrs (FIG. 2)): improved stability in plasma compared to PEGylated or non-conjugated peptides
